The values below come from US20130064794A1, “Substituted Carbonyloxymethylphosphoramidate Compounds and Pharmaceutical Compositions for the Treatment of Viral Infections” (IDENIX PHARMACEUTICALS, INC., priority 2011, published 2013).

Structures are written as SMILES.

The test system of the first series is Zluc cells (Huh-7-derived cell line). The series can be described thus: Cytotoxicity evaluation, CellTiter-Blue Cell Viability Assay. In kind it is cell-based. The following applies: read-out: HCV Replicon CC50. The protocol: (§1) For cytotoxicity evaluation, Zluc cells were treated with compound as described above, and cell viability was monitored using the CellTiter-Blue Cell Viability Assay (Promega) by adding 20 μL of the assay solution to each well. The plates were then incubated at 37° C./5% CO2 for at least 3 hours.
(Resazurin is reduced to fluorescent resorufin, in cell work by metabolically active cells.)
With `CCOC(=O)OC(C)OP(=O)(N[C@@H](C)C(=O)OC(C)C)OC[C@H]1O[C@@H](n2cnc3c(OC)nc(N)nc32)[C@](C)(F)[C@@H]1O` (single isomer, unassigned) [Compound 16], the 50% cytotoxic concentration (CC50) – broadly, the concentration at which the toxic effect on the cells reaches its halfway point – is greater than 50 µM.
On to `CCOC(=O)OC(C)OP(=O)(N[C@@H](C)C(=O)OC(C)C)OC[C@H]1O[C@@H](n2cnc3c(OC)nc(N)nc32)[C@](C)(F)[C@@H]1O` (single isomer, unassigned) [Compound 17], for which the CC50 is greater than 50 µM.

Tested on in the next series: not listed separately
The series is described as above. It counts as cell-based. The note with it: human, Zluc cells (Huh-7-derived cell line), read-out: HCV Replicon CC50. The procedure: as §1
(A replicon is a self-replicating genome or part of one, used to study replication in cells.)
For the compound `CCNC(=O)OCOP(=O)(N[C@H](C(=O)OCC)C(C)(C)C)OC[C@H]1O[C@@H](n2cnc3c(OCC)nc(N)nc32)[C@](C)(F)[C@@H]1O` (single isomer, unassigned) [Compound 21], the half-maximal cytotoxic concentration (CC50) is greater than 50 µM.
For `CCNC(=O)OCOP(=O)(N[C@H](C(=O)OCC)C(C)(C)C)OC[C@H]1O[C@@H](n2cnc3c(OCC)nc(N)nc32)[C@](C)(F)[C@@H]1O` (single isomer, unassigned) [Compound 22], the CC50 is greater than 50 µM.
Turning to `C[C@@]1(O)[C@H](O)[C@@H](COP(=O)(O)NCc2ccccc2)O[C@H]1n1cnc2c(=O)[nH]c(N)nc21` [Compound 1], the CC50 was greater than 50 µM.
Regarding `CC(C)(C)C(=O)OCOP(=O)(NCc1ccccc1)OC[C@H]1O[C@@H](n2cnc3c(=O)[nH]c(N)nc32)[C@](C)(O)[C@@H]1O` (stereo partly drawn) [Compound 2], the CC50 is greater than 50 µM.
The same measure, in the same setting: then `COc1nc(N)nc2c1ncn2[C@@H]1O[C@H](COP(=O)(NCc2ccccc2)OC(OC(=O)OC(C)C)C(C)C)[C@@H](O)[C@@]1(C)O` (stereo partly drawn) [Compound 6], with less than 50 µM; and `COc1nc(N)nc2c1ncn2[C@@H]1O[C@H](COP(=O)(N[C@@H](CC(C)C)C(=O)OC(C)C)OCOC(=O)OC(C)C)[C@@H](O)[C@@]1(C)O` (stereo partly drawn) [Compound 7], with greater than 50 µM; and `CCOc1nc(N)nc2c1ncn2[C@@H]1O[C@H](COP(=O)(N[C@@H](C)C(=O)OC(C)C)OC(C)OC(=O)SCC)[C@@H](O)[C@@]1(C)F` (stereo partly drawn) [Compound 24], with greater than 50 µM.

The next series concerns HCV genotype 1b replicon. The series can be described thus: microbe, parasite or virus in culture. In kind it is cell-based. The following applies: Hepatitis C virus, 72 h, read-out: HCV Replicon EC50. The protocol:
Huh-7-derived cell line (Zluc) that harbors an HCV genotype 1b replicon and a luciferase reporter gene was grown in Dulbecco's Modified Eagle Medium (DMEM) supplemented with 10% fetal bovine serum, 2 mM GlutaMAX, 1% MEM nonessential amino acids, 100 IU/mL penicillin, 100 μg/mL streptomycin, and 0.5 mg/mL Geneticin® (G418). For dose response testing the cells were seeded in 96-well plates at 7.5×10^3 cells per well in a volume of 50 μL, and incubated at 37° C./5% CO2. Drug solutions were made up freshly in Huh-7 media as 2× stocks. Ten additional 5-fold dilutions were prepared from these stocks in DMEM without G418. At least three hours after Zluc cells were seeded, drug treatment was initiated by adding 50 μL of drug dilutions to the plates in duplicate. […] Cells were then incubated at 37° C./5% CO2. Alternatively compounds were tested at two concentrations (10 nM and 100 nM). […] For this, media was removed from the plates via gentle tapping. Fifty microliters of ONE-glo luciferase assay reagent was added to each well. […] The EC50 values were calculated from dose response curves from the resulting best-fit equations determined by Microsoft Excel and XLfit 4.1 software.
Consider `CCNC(=O)OCOP(=O)(N[C@H](C(=O)OCC)C(C)(C)C)OC[C@H]1O[C@@H](n2cnc3c(OCC)nc(N)nc32)[C@](C)(F)[C@@H]1O` (single isomer, unassigned) [Compound 21], for which the concentration giving a half-maximal response (EC50) (usually the concentration giving half of the maximal effect) lay in the range of 1000 to 10000 nM.
In the case of `CCNC(=O)OCOP(=O)(N[C@H](C(=O)OCC)C(C)(C)C)OC[C@H]1O[C@@H](n2cnc3c(OCC)nc(N)nc32)[C@](C)(F)[C@@H]1O` (single isomer, unassigned) [Compound 22], the EC50 was 1000 to 10000 nM.
Take `C[C@@]1(O)[C@H](O)[C@@H](COP(=O)(O)NCc2ccccc2)O[C@H]1n1cnc2c(=O)[nH]c(N)nc21` [Compound 1]: the 50% effective concentration (EC50) lay in the range of 100 to 1000 nM.
For `CC(C)(C)C(=O)OCOP(=O)(NCc1ccccc1)OC[C@H]1O[C@@H](n2cnc3c(=O)[nH]c(N)nc32)[C@](C)(O)[C@@H]1O` (stereo partly drawn) [Compound 2], the concentration giving a half-maximal response (EC50) is less than 100 nM.
On the same count and under the same terms, next, `COc1nc(N)nc2c1ncn2[C@@H]1O[C@H](COP(=O)(NCc2ccccc2)OC(OC(=O)OC(C)C)C(C)C)[C@@H](O)[C@@]1(C)O` (stereo partly drawn) [Compound 6]: less than 100 nM; `COc1nc(N)nc2c1ncn2[C@@H]1O[C@H](COP(=O)(N[C@@H](CC(C)C)C(=O)OC(C)C)OCOC(=O)OC(C)C)[C@@H](O)[C@@]1(C)O` (stereo partly drawn) [Compound 7]: less than 100 nM.
Turning to `CCOc1nc(N)nc2c1ncn2[C@@H]1O[C@H](COP(=O)(N[C@@H](C)C(=O)OC(C)C)OC(C)OC(=O)SCC)[C@@H](O)[C@@]1(C)F` (stereo partly drawn) [Compound 24], the half-maximal effective concentration (EC50) was less than 100 nM.

Still in this series, the particulars now being: read-out: HCV Replicon EC50; Zluc cells, HCV genotype 1b replicon, luciferase, 72 hours of incubation.
Turning to `CCOC(=O)OC(C)OP(=O)(N[C@@H](C)C(=O)OC(C)C)OC[C@H]1O[C@@H](n2cnc3c(OC)nc(N)nc32)[C@](C)(F)[C@@H]1O` (single isomer, unassigned) [Compound 16], the EC50 is less than 100 nM.
`CCOC(=O)OC(C)OP(=O)(N[C@@H](C)C(=O)OC(C)C)OC[C@H]1O[C@@H](n2cnc3c(OC)nc(N)nc32)[C@](C)(F)[C@@H]1O` (single isomer, unassigned) [Compound 17]: the concentration for a half-maximal effect (EC50) was less than 100 nM.
